Tests used:
[1] = target: K-Ras G12C (Homo sapiens (Human), UniProt P01116+P62937, G12C); assay: Ras-Raf (BRAF RBD) disruption / FRET / MOA assay, KRAS G12C; format: biochemical; settings: KRAS G12C; Ras-Raf disruption/FRET/MOA assay; read-out: IC50* KRAS G12C FRET data
Method in brief: (§1)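 TR-FRET read-out: a drop in ratio relative to DMSO wells marks disruption of the Ras:RAF complex, reported as IC50. Compounds (3-fold series, 10 points, top 30 μM final) incubated 3 h at 25° C before Eu-anti-His 10 nM and APC-anti-GST 50 nM, 1.5 h more.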

[2] = target: NRAS Q61R (Homo sapiens (Human), UniProt P01111+P62937, Q61R); assay: Ras-Raf (BRAF RBD) disruption / FRET / MOA assay, NRAS Q61R; format: biochemical; settings: NRAS Q61R; Ras-Raf disruption/FRET/MOA assay; read-out: IC50* NRAS Q61R FRET data
Method in brief: (§2)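 Compounds were tested as a 10-point 3-fold dilution series from 30 μM final for their ability to drive ternary complex formation between nucleotide-loaded Ras and cyclophilin A, displacing the BRAF RBD. After 3 h at 25° C., anti-His Eu-W1024 (10 nM) and anti-GST allophycocyanin (50 nM) were added for 1.5 h. A TR-FRET ratio decrease versus DMSO gave IC50.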

[3] = target: NRAS WT (Homo sapiens (Human), UniProt P01111+P62937); assay: Ras-Raf (BRAF RBD) disruption / FRET / MOA assay, NRAS WT; format: biochemical; settings: read-out: IC50* NRAS WT FRET data
Method in brief: as §2

[4] = tested on: NCI-H358 (K-Ras G12C); assay: CellTiter-Glo cell viability assay, NCI-H358; format: cell-based, human; settings: Homo sapiens, NCI-H358, 120 h, NCI-H358, 5-day treatment; class symbols; read-out: Additional H358 Cell Viability assay data (K-Ras G12C, IC50)
Method in brief: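 Compounds dispensed directly onto seeded K-Ras mutant cells; plates read on day 5 after ~30 min equilibration to room temperature, by CellTiter-Glo luminescence. Signal normalized as (sample/mean DMSO)×100, then fitted to a four-parameter logistic curve.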

[5] = target: KRAS WT (Homo sapiens (Human), UniProt P01116+P62937); assay: Ras-Raf (BRAF RBD) disruption / FRET / MOA assay, KRAS WT; format: biochemical; settings: read-out: IC50* KRAS WT FRET data
Method in brief: as §1

[6] = target: KRAS Q61H (Homo sapiens (Human), UniProt P01116+P62937, Q61H); assay: Ras-Raf (BRAF RBD) disruption / FRET / MOA assay, KRAS Q61H; format: biochemical; settings: Ras-Raf disruption/FRET/MOA assay; class symbols; read-out: KRAS Q61H FRET data IC50
Method in brief: as §2

[7] = target: KRAS G12S (Homo sapiens (Human), UniProt P01116+P62937, G12S); assay: Ras-Raf (BRAF RBD) disruption / FRET / MOA assay, KRAS G12S; format: biochemical; settings: Ras-Raf disruption/FRET/MOA assay; class symbols; read-out: KRAS G12S FRET data IC50
Method in brief: as §1

[8] = target: NRAS G12C (Homo sapiens (Human), UniProt P01111+P62937, G12C); assay: Ras-Raf (BRAF RBD) disruption / FRET / MOA assay, NRAS G12C; format: biochemical; settings: read-out: IC50* NRAS G12C FRET data
Method in brief: as §1

[9] = target: KRAS G12D (Homo sapiens (Human), UniProt P01116+P62937, G12D); assay: Ras-Raf (BRAF RBD) disruption / FRET / MOA assay, KRAS G12D; format: biochemical; settings: Ras-Raf disruption/FRET/MOA assay; class symbols; read-out: KRAS G12D FRET data IC50
Method in brief: as §1

[10] = target: K-Ras G13C (Homo sapiens (Human), UniProt P01116+P62937, G13C); assay: Ras-Raf (BRAF RBD) disruption / FRET / MOA assay, KRAS G13C; format: biochemical; settings: KRAS G13C; Ras-Raf disruption/FRET/MOA assay; read-out: IC50* KRAS G13C FRET data
Method in brief: as §1

[11] = target: NRAS Q61K (Homo sapiens (Human), UniProt P01111+P62937, Q61K); assay: Ras-Raf (BRAF RBD) disruption / FRET / MOA assay, NRAS Q61K; format: biochemical; settings: NRAS Q61K; Ras-Raf disruption/FRET/MOA assay; read-out: IC50* NRAS Q61K FRET data
Method in brief: as §2

[12] = target: KRAS G13D (Homo sapiens (Human), UniProt P01116+P62937, G13D); assay: Ras-Raf (BRAF RBD) disruption / FRET / MOA assay, KRAS G13D; format: biochemical; settings: read-out: IC50* KRAS G13D FRET data
Method in brief: as §1

NRAS G12C, sequence (P01111 whole entry G12C): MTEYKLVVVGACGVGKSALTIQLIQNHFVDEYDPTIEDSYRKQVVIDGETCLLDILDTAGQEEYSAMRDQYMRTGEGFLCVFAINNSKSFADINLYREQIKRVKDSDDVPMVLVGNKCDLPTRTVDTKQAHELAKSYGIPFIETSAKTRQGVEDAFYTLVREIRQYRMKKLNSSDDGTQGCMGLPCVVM
NRAS G12C, sequence (P62937 whole entry): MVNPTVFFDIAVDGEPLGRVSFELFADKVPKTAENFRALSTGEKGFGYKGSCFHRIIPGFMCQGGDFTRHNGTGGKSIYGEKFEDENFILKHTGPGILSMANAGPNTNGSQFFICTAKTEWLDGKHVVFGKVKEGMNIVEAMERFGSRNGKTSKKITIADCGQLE
KRAS G13D, sequence (P01116-2 other isoform, or with tags, fused parts or gaps G13D): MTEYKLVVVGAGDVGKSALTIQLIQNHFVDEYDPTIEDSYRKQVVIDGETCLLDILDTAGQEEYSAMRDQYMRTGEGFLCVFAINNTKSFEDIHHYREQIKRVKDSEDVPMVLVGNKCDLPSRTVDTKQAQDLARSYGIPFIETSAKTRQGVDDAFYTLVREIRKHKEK
KRAS G13D, sequence (P62937 whole entry): as the sequence (P62937 whole entry) above
NRAS Q61K, sequence (P01111 whole entry Q61K): as the sequence (P01111 whole entry G12C) above, with C12G, Q61K counted along it
NRAS Q61K, sequence (P62937 whole entry): as the sequence (P62937 whole entry) above
K-Ras G13C, sequence (P01116-2 other isoform, or with tags, fused parts or gaps G13C): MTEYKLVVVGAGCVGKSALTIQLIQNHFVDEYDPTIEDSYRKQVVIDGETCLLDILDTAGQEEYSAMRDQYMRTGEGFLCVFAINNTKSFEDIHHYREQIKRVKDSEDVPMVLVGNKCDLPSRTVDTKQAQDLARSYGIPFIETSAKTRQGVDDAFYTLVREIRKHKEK
K-Ras G13C, sequence (P62937 whole entry): as the sequence (P62937 whole entry) above
K-Ras G12C, sequence (P01116-2 other isoform, or with tags, fused parts or gaps G12C): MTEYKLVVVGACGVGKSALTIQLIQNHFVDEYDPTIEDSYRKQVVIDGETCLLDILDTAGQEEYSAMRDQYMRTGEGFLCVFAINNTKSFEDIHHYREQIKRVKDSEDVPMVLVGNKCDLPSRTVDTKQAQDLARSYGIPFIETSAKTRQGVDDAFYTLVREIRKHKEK
K-Ras G12C, sequence (P62937 whole entry): as the sequence (P62937 whole entry) above
KRAS Q61H, sequence (P01116-2 other isoform, or with tags, fused parts or gaps Q61H): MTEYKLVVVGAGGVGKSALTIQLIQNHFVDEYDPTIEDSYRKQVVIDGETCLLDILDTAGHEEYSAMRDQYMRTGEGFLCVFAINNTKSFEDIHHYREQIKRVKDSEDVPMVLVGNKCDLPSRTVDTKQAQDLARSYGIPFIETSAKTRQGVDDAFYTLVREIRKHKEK
KRAS Q61H, sequence (P62937 whole entry): as the sequence (P62937 whole entry) above
KRAS G12D, sequence (P01116-2 other isoform, or with tags, fused parts or gaps G12D): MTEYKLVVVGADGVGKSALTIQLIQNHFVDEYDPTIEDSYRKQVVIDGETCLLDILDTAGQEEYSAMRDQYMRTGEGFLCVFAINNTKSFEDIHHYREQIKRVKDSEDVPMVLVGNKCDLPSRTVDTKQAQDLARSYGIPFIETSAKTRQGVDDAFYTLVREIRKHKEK
KRAS G12D, sequence (P62937 whole entry): as the sequence (P62937 whole entry) above
KRAS G12S, sequence (P01116-2 other isoform, or with tags, fused parts or gaps G12S): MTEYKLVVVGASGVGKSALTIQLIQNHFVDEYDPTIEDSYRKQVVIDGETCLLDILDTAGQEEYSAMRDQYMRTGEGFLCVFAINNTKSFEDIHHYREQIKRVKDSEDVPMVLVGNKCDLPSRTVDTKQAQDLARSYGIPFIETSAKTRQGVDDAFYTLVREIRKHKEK
KRAS G12S, sequence (P62937 whole entry): as the sequence (P62937 whole entry) above
NRAS Q61R, sequence (P01111 whole entry Q61R): as the sequence (P01111 whole entry G12C) above, with C12G, Q61R counted along it
NRAS Q61R, sequence (P62937 whole entry): as the sequence (P62937 whole entry) above
NRAS WT, sequence (P01111 whole entry): as the sequence (P01111 whole entry G12C) above, with C12G counted along it
NRAS WT, sequence (P62937 whole entry): as the sequence (P62937 whole entry) above
KRAS WT, sequence (P01116-2 other isoform, or with tags, fused parts or gaps): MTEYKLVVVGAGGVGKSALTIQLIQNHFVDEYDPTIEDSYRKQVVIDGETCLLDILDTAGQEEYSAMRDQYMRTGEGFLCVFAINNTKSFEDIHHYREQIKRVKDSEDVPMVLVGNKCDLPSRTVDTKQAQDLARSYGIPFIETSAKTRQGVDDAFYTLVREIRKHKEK
KRAS WT, sequence (P62937 whole entry): as the sequence (P62937 whole entry) above

Compound	IC50 [1] [µM]	IC50 [2] [µM]	IC50 [3] [µM]	IC50 [4] [µM]	IC50 [5] [µM]	IC50 [6] [µM]	IC50 [7] [µM]	IC50 [8] [µM]	IC50 [9] [µM]	IC50 [10] [µM]	IC50 [11] [µM]	IC50 [12] [µM]
C=CC(=O)N1CC(OC[C@H](C(=O)N[C@H]2C[C@H]3CN(CCO3)c3ccc4c(c3)c(c(-c3cccnc3[C@H](C)OC)n4CC(F)(F)F)CC(C)(C)COC(=O)[C@@H]3CCCN(N3)C2=O)C(C)C)C1 (atropisomer, axis not shown) [Example A723]	0.1 to 1	> 10	1 to 10	0.01 to 0.1	1 to 10	1 to 10	1 to 10	0.1 to 1	> 10	1 to 10	> 10	> 10
CCn1c(-c2cccnc2[C@H](C)OC)c2c3cc(ccc31)-c1csc(n1)C[C@H](NC(=O)[C@H](C(C)C)N(C)C(=O)N(C)C1CN(C(=O)/C=C/[C@H]3CCCN3C)C1)C(=O)N1CCC[C@H](N1)C(=O)OCC(C)(C)C2 (atropisomer, axis not shown) [Example A729]	0.1 to 1	1 to 10	0.1 to 1	0.1 to 1	0.1 to 1	0.1 to 1	0.1 to 1	0.1 to 1	1 to 10	0.1 to 1	0.1 to 1	0.1 to 1
CCn1c(-c2cccnc2[C@H](C)OC)c2c3cc(ccc31)-c1csc(n1)C[C@H](NC(=O)[C@H](C(C)C)N(C)C(=O)N(C)C1CN(C(=O)/C=C/[C@@H]3CCCN3C)C1)C(=O)N1CCC[C@H](N1)C(=O)OCC(C)(C)C2 (atropisomer, axis not shown) [Example A730]	0.01 to 0.1	1 to 10	0.1 to 1	0.01 to 0.1	0.1 to 1	0.1 to 1	0.1 to 1	0.01 to 0.1	1 to 10	0.1 to 1	0.1 to 1	0.1 to 1
CC#CC(=O)N1CC(N(C)C(=O)N(C)[C@H](C(=O)N[C@H]2Cc3nc(cs3)-c3ccc4c(c3)c(c(-c3cccnc3[C@H](C)OC)n4CC)CC(C)(C)COC(=O)[C@@H]3CCCN(N3)C2=O)C(C)C)C1 (atropisomer, axis not shown) [Example A731]	0.1 to 1	1 to 10	0.1 to 1	0.1 to 1	0.1 to 1	0.1 to 1	0.1 to 1	0.1 to 1	1 to 10	0.1 to 1	0.1 to 1	1 to 10
C=C(F)C(=O)N1CC(N(C)C(=O)N(C)[C@H](C(=O)N[C@H]2Cc3nc(cs3)-c3ccc4c(c3)c(c(-c3cccnc3[C@H](C)OC)n4CC)CC(C)(C)COC(=O)[C@@H]3CCCN(N3)C2=O)C(C)C)C1 (atropisomer, axis not shown) [Example A732]	0.1 to 1	0.1 to 1	0.1 to 1	0.01 to 0.1	0.1 to 1	0.1 to 1	0.1 to 1	0.1 to 1	1 to 10	0.1 to 1	0.1 to 1	1 to 10
C=CC(=O)N1CCN(C(=O)N(C)[C@H](C(=O)N[C@H]2Cc3nc(cs3)-c3ccc4c(c3)c(c(-c3cccnc3[C@H](C)OC)n4CC)CC(C)(C)COC(=O)[C@@H]3CCCN(N3)C2=O)C(C)C)[C@H]2C[C@H]21 (atropisomer, axis not shown) [Example A737]	0.01 to 0.1	0.01 to 0.1	0.01 to 0.1	0.01 to 0.1	0.01 to 0.1	0.01 to 0.1	0.1 to 1	0.01 to 0.1	0.1 to 1	0.01 to 0.1	0.01 to 0.1	0.1 to 1
